IC50 data for 42 compounds are collected here from patent US10005739B2, “Quinazolinone and isoquinolinone derivative” (CHUGAI SEIYAKU KABUSHIKI KAISHA, priority 2013, dated 2018).

Structures are written as SMILES.

Sequence of DDR1 (Q08345 19-913): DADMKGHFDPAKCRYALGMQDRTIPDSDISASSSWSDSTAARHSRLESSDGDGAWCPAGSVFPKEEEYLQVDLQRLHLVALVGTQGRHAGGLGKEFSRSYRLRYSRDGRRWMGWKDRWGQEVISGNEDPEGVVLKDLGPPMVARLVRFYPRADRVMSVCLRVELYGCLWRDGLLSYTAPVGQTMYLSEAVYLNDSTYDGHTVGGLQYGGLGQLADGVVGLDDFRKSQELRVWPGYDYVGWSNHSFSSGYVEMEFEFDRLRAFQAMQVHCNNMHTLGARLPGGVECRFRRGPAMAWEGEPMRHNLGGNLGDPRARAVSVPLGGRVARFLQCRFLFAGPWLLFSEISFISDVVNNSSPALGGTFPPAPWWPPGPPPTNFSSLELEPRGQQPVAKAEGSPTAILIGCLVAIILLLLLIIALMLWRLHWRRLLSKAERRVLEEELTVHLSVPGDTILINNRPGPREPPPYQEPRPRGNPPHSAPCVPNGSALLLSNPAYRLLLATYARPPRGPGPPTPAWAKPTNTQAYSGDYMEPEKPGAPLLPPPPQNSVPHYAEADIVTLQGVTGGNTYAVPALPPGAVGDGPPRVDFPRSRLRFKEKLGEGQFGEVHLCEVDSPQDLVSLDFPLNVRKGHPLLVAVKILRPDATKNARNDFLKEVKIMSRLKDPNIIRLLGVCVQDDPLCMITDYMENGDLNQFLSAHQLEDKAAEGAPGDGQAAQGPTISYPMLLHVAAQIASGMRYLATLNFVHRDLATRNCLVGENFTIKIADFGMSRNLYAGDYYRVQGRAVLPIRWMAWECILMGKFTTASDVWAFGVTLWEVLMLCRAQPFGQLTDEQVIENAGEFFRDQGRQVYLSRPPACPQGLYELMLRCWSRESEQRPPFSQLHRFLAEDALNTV

This assay has as its target DDR1 (Homo sapiens (Human), UniProt Q08345). The assay is described as follows: Measurement of DDR1 enzyme inhibitory activity (phosphorylation of biotinylated peptide, time-resolved fluorescence). The format is biochemical. Conditions: human DDR1 enzyme, biotinylated peptide phosphorylation; read-out: DDR1 enzyme inhibition assay IC50. The method, then: 1. Measurement of DDR1 Enzyme Inhibitory Activity
The DDR1 enzyme inhibitory activity was determined with human DDR1 enzyme prepared using the baculovirus expression system, based on the inhibitory activity of phosphorylation of a biotinylated peptide ([…]) by the enzyme. The phosphorylated biotinylated peptide was detected using time-resolved fluorescence, with an anti-phosphorylated tyrosine antibody conjugated with europium cryptate and streptavidin conjugated with XL665 which is a derivative of allophycocyanin.
What is called IC50 is the concentration at which inhibition is half-maximal. In the case of `CCSc1ccc(Cl)cc1Nn1cnc2c(Br)cc(C)cc2c1=O` [Compound A-1, 8-Bromo-3-(5-chloro-2-ethylsulfanylanilino)-6-methylquinazolin-4-one], the IC50 is 170 nM.

As to `CCS(=O)(=O)c1ccc(Cl)cc1Nn1cnc2c(Br)cc(C)cc2c1=O` [Compound A-2, 8-Bromo-3-(5-chloro-2-ethylsulfonylanilino)-6-methylquinazolin-4-one], the IC50 amounted to 40 nM.

In the case of `CCSc1ccc(Cl)cc1Nn1cnc2c(-c3ccc(F)cc3)cc(C)cc2c1=O` [Compound A-3, 3-(5-Chloro-2-ethylsulfanylanilino)-8-(4-fluorophenyl)-6-methylquinazolin-4-one], the IC50 worked out at 110 nM.

On to `CCS(=O)(=O)c1ccc(Cl)cc1Nn1cnc2c(-c3ccc(F)cc3)cc(C)cc2c1=O` [Compound A-4, 3-(5-Chloro-2-ethylsulfonylanilino)-8-(4-fluorophenyl)-6-methylquinazolin-4-one], for which the IC50 was 1350 nM.

Take `CCSc1ccc(Cl)cc1Nn1cnc2cc(Br)c(C)cc2c1=O` [Compound A-5, 7-Bromo-3-(5-chloro-2-ethylsulfanylanilino)-6-methylquinazolin-4-one]: the IC50 was determined as 880 nM.

Consider `CCS(=O)(=O)c1ccc(Cl)cc1Nn1cnc2cc(Br)c(C(F)F)cc2c1=O` [Compound A-6, 7-Bromo-3-(5-chloro-2-ethylsulfonylanilino)-6-(difluoromethyl)quinazolin-4-one], for which the IC50 amounted to 70 nM.

Regarding `CCSc1ccc(Cl)cc1Nn1cnc2cc(C)c(Br)cc2c1=O` [Compound A-7, 6-Bromo-3-(5-chloro-2-ethylsulfanylanilino)-7-methylquinazolin-4-one], the IC50 was 800 nM.

Consider `CCS(=O)(=O)c1ccc(Cl)cc1Nn1cnc2cc(C)c(Br)cc2c1=O` [Compound A-8, 6-Bromo-3-(5-chloro-2-ethylsulfonylanilino)-7-methylquinazolin-4-one], for which the IC50 was determined as 550 nM.

With `CCSc1ccc(Cl)cc1Nn1cnc2ccc(C(F)(F)F)cc2c1=O` [Compound A-9, 3-(5-Chloro-2-ethylsulfanylanilino)-6-(trifluoromethyl)quinazolin-4-one], the IC50 was determined as 180 nM.

With `CCS(=O)(=O)c1ccc(Cl)cc1Nn1cnc2ccc(C(F)(F)F)cc2c1=O` [Compound A-10, 3-(5-Chloro-2-ethylsulfonylanilino)-6-(trifluoromethyl)quinazolin-4-one], the IC50 came out at 120 nM.

For the compound `CCSc1ccc(Cl)cc1Nn1cnc2c(Cl)cc(C(F)(F)F)cc2c1=O` [Compound A-11, 8-Chloro-3-(5-chloro-2-ethylsulfanylanilino)-6-(trifluoromethyl)quinazolin-4-one], the IC50 amounted to 400 nM.

On to `CCS(=O)(=O)c1ccc(Cl)cc1Nn1cnc2c(I)cc(C(F)(F)F)cc2c1=O` [Compound A-13, 3-(5-Chloro-2-ethylsulfonylanilino)-8-iodo-6-(trifluromethyl)quinazolin-4-one], for which the concentration for half-maximal inhibition (IC50) stood at 240 nM.

Regarding `CCSc1ccc(Cl)cc1Nn1cnc2cnc(Cl)cc2c1=O` [Compound A-14, 6-Chloro-3-(5-chloro-2-ethylsulfanylanilino)pyrido[3,4-d]pyrimidin-4-one], the IC50 was determined as 130 nM.

For `CCS(=O)(=O)c1ccc(Cl)cc1Nn1cnc2cnc(Cl)cc2c1=O` [Compound A-15, 6-Chloro-3-(5-chloro-2-ethylsulfonylanilino)pyrido[3,4-d]pyrimidin-4-one], the IC50 was determined as 1230 nM.

As for `CCS(=O)(=O)c1ccc(Cl)cc1Nn1cnc2ncc(Br)cc2c1=O` [Compound A-17, 6-Bromo-3-(5-chloro-2-ethylsulfonylanilino)pyrido[2,3-d]pyrimidin-4-one], the IC50 was found to be 270 nM.

For `CCS(=O)(=O)c1ccc(Cl)cc1Nn1cnc2ncc(C#N)cc2c1=O` [Compound A-18, 3-(5-Chloro-2-ethylsulfonylanilino)-4-oxopyrido[2,3-d]pyrimidine-6-carbonitrile], the IC50 was 1710 nM.

`CCSc1ccc(Cl)cc1Nn1cnc2cnc(F)cc2c1=O` [Compound A-19, 3-(5-Chloro-2-ethylsulfanylanilino)-6-fluoropyrido[3,4-d]pyrimidin-4-one]: the IC50 turned out to be 510 nM.

With `CCS(=O)(=O)c1ccc(Cl)cc1Nn1cnc2cnc(F)cc2c1=O` [Compound A-20, 3-(5-Chloro-2-ethylsulfonylanilino)-6-fluoropyrido[3,4-d]pyrimidin-4-one], the IC50 stood at 7640 nM.

For `CCSc1ccc(Cl)cc1Nn1cnc2cnc(OC)cc2c1=O` [Compound A-21, 3-(5-Chloro-2-ethylsulfanylanilino)-6-methoxypyrido[3,4-d]pyrimidin-4-one], the IC50 is 270 nM.

On to `CCS(=O)(=O)c1ccc(Cl)cc1Nn1cnc2cnc(OC)cc2c1=O` [Compound A-22, 3-(5-Chloro-2-ethylsulfonylanilino)-6-methoxypyrido[3,4-d]pyrimidin-4-one], for which the IC50 worked out at 1930 nM.

As for `CCSc1ccc(Cl)cc1Nn1cnc2ncc(C(F)(F)F)cc2c1=O` [Compound A-23, 3-(5-Chloro-2-ethylsulfanylanilino)-6-(trifluoromethyl)pyrido[2,3-d]pyrimidin-4-one], the IC50 came to 160 nM.

Turning to `CCS(=O)(=O)c1ccc(Cl)cc1Nn1cnc2ncc(C(F)(F)F)cc2c1=O` [Compound A-24, 3-(5-Chloro-2-ethylsulfonylanilino)-6-(trifluoromethyl)pyrido[2,3-d]pyrimidin-4-one], the IC50 was determined as 190 nM.

For `CCSc1ccc(Cl)cc1Nn1cnc2ccc(F)cc2c1=O` [Compound A-28, 3-(5-Chloro-2-ethylsulfanylanilino)-6-fluoroquinazolin-4-one], the IC50 stood at 88 nM.

Regarding `CCS(=O)(=O)c1ccc(Cl)cc1Nn1cnc2ccc(F)cc2c1=O` [Compound A-29, 3-(5-Chloro-2-ethylsulfonylanilino)-6-fluoroquinazolin-4-one], the half-maximal inhibitory concentration (IC50) stood at 340 nM.

In the case of `CCSc1ccc(Cl)cc1Nn1cnc2cc(F)c(F)cc2c1=O` [Compound A-30, 3-(5-Chloro-2-ethylsulfanylanilino)-6,7-difluoroquinazolin-4-one], the half-maximal inhibitory concentration (IC50) stood at 100 nM.

For the compound `CCS(=O)(=O)c1ccc(Cl)cc1Nn1cnc2cc(F)c(F)cc2c1=O` [Compound A-31, 3-(5-Chloro-2-ethylsulfonylanilino)-6,7-difluoroquinazolin-4-one], the IC50 is 380 nM.

Take `CCSc1ccc(Cl)cc1Nn1cnc2c(Br)cc(C(F)(F)F)cc2c1=O` [Compound A-32, 8-Bromo-3-(5-chloro-2-ethylsulfanylanilino)-6-(trifluoromethyl)quinazolin-4-one]: the IC50 came to 290 nM.

On to `CCSc1ccc(Cl)cc1Nn1cnc2ccc(OC)cc2c1=O` [Compound A-34, 3-(5-Chloro-2-ethylsulfanylanilino)-6-methoxyquinazolin-4-one], for which the IC50 was 68 nM.

Take `CCS(=O)(=O)c1ccc(Cl)cc1Nn1cnc2ccc(OC)cc2c1=O` [Compound A-35, 3-(5-Chloro-2-ethylsulfonylanilino)-6-methoxyquinazolin-4-one]: the IC50 came to 95 nM.

In the case of `CCOc1ccc2ncn(Nc3cc(Cl)ccc3SCC)c(=O)c2c1` [Compound A-36, 3-(5-Chloro-2-ethylsulfanylanilino)-6-ethoxyquinazolin-4-one], the IC50 was 250 nM.

For the compound `CCOc1ccc2ncn(Nc3cc(Cl)ccc3S(=O)(=O)CC)c(=O)c2c1` [Compound A-37, 3-(5-Chloro-2-ethylsulfonylanilino)-6-ethoxyquinazolin-4-one], the IC50 was determined as 430 nM.

Turning to `CCSc1ccc(Cl)cc1Nn1cnc2cc(OC)c(OC)cc2c1=O` [Compound A-38, 3-(5-Chloro-2-ethylsulfanylanilino)-6,7-dimethoxyquinazolin-4-one], the IC50 was determined as 480 nM.

As to `CCS(=O)(=O)c1ccc(Cl)cc1Nn1cnc2cc(OC)c(OC)cc2c1=O` [Compound A-39, 3-(5-Chloro-2-ethylsulfonylanilino)-6-dimethoxyquinazolin-4-one], the IC50 stood at 1750 nM.

In the case of `CCSc1ccc(Cl)cc1Nn1cnc2cc3c(cc2c1=O)OCO3` [Compound A-40, 7-(5-Chloro-2-ethylsulfanylanilino)-[1,3]dioxolo[4,5-g]quinazolin-8-one], the IC50 stood at 350 nM.

`CCS(=O)(=O)c1ccc(Cl)cc1Nn1cnc2cc3c(cc2c1=O)OCO3` [Compound A-41, 7-(5-Chloro-2-ethylsulfonylanilino)-[1,3]dioxolo[4,5-g]quinazolin-8-one]: the IC50 is 1950 nM.

Take `CCSc1ccc(Cl)cc1Nn1cnc2cc3c(cc2c1=O)OCCO3` [Compound A-42, 3-(5-Chloro-2-ethylsulfanylanilino)-7,8-dihydro-[1,4]dioxino[2,3-g]quinazolin-4-one]: the IC50 is 3100 nM.

Take `CCS(=O)(=O)c1ccc(Cl)cc1Nn1cnc2cc3c(cc2c1=O)OCCO3` [Compound A-43, 3-(5-Chloro-2-ethylsulfonylanilino)-7,8-dihydro-[1,4]dioxino[2,3-g]quinazolin-4-one]: the IC50 is 600 nM.

Regarding `CCSc1ccc(Cl)cc1Nn1cnc2ccc(OC(F)(F)F)cc2c1=O` [Compound A-44, 3-(5-Chloro-2-ethylsulfanylanilino)-6-(trifluoromethoxy)quinazolin-4-one], the IC50 turned out to be 290 nM.

For `CCSc1ccc(Cl)cc1Nn1cnc2c(Br)cc(OC(F)(F)F)cc2c1=O` [Compound A-46, 8-Bromo-3-(5-chloro-2-ethylsulfanylanilino)-6-(trifluoromethoxy)quinazolin-4-one], the IC50 was 420 nM.

Take `CCSc1ccc(Cl)cc1Nn1cnc2ccc(SC)cc2c1=O` [Compound A-48, 3-(5-Chloro-2-ethylsulfanylanilino)-6-methylsulfanylquinazolin-4-one]: the IC50 is 200 nM.

For the compound `CCS(=O)(=O)c1ccc(Cl)cc1Nn1cnc2ccc(S(C)(=O)=O)cc2c1=O` [Compound A-49, 3-(5-Chloro-2-ethylsulfonylanilino)-6-methylsulfonylquinazolin-4-one], the IC50 was 2130 nM.

For `CCSc1ccc(Cl)cc1Nn1cnc2ccc(C)cc2c1=O` [Compound A-50, 3-(5-Chloro-2-ethylsulfanylanilino)-6-methylquinazolin-4-one], the IC50 was determined as 57 nM.
